“And” between values parts separate entries of the source, which are not always exact repeats. Identical values can stand only once. “Also recorded” adds a separate entry of the source.
Tests used:
[1] = Kinetic solubility study at pH 4.5 (acetic acid/sodium acetate buffer, HPLC area); conditions: for Encl. Citr. average / solubility at pH 4.5 compared with Enclomiphene citrate having non-needle crystals: pH 4.5
Protocol: (§1) Solubility was determined by HPLC analysis, by comparison of the area corresponding to Enclomiphene HPLC peak.
(§2) To carry out the solubility studies, 400 mg of each product (not grinded) was stirred in water (24 ml, 60v) under the same conditions of stirring speed (magnetic stirring at 1000 rpm with a 2 cm “rugby shape” stir bar), flask used (round bottom flask of 50 ml of capacity with a 29/32 neck), etc. Alliquotes of ca 6 ml of suspension were filtered at different times: 15, 45, 90 and 180 min. After filtration, mother liquors were directly analyzed by HPLC (doing 2 replicates for each analysis) and its pH was determined. The filtered solid was analyzed by XRPD. The solubility analysis was repeated for each product and comparison of solubility was determined by the differences of HPLC area.
Solubility at a slightly acid medium was determined at pH 4.5 buffer used was a mixture acetic acid/sodium acetate prepared according to USP specifications.

[2] = Hygroscopicity by DVS (Dynamic Vapour Sorption); format: physicochemical; conditions: 25° C.; for water uptake at 95% RH: 0-95% RH
Protocol: This is a gravimetric technique that measures how much water is absorbed or desorbed by a sample at different relative humidity (RH). At each RH, the sample mass must be allowed to reach gravimetric equilibrium (or surpassed time limit) before progressing to the next humidity level. Sorption and desorption isotherms will be performed at 25° C. over a range of 0-95% RH. The type of sorption isotherm is determined by the pore size and surface character of the material.

[3] = Stability study of crystal habit by microscopy, three stability conditions for 30 days; format: physicochemical; conditions: 30 days at 60% RH, 75% RH-40° C., 95% RH
Description: (B), and 95% RH (C), with reflected light (left) and transmitted light (right) (scale 500 μm).
Microscopy analysis of Enclomiphene base having prismatic shaped crystal habit exposed to three stability conditions for 30 days indicated the same colorless transparent prism as the starting product.

[4] = Flowability through a glass funnel (in-house method); format: physicochemical
Protocol: Flowability was determined by an in-house method using a glass funnel (diameter 80 mm-stem diameter 10 mm-stem length 75 mm) with approximately 5 g of product repeating the process three times (in the cases in which flowability was observed). Different parameters were observed: • Flow or not • Need of percussion • Time to pass through the funnel

[5] = Bulk and tapped density (in-house method, filled space of 500 mg in a test tube); format: physicochemical
Protocol: Density was determined by an in-house method measuring the filled space by a sample of 500 mg in a test tube before and after hitting the tube (bulk and tapped density, respectively):
The compressibility index calculated from bulk and tapped densities can be used to estimate the flow characteristics of the powder. Following the rule described in the article Chem Eng 1965; 72:163-168, it can be considered that the flow character should be: • Excellent for Enclomiphene base having prismatic shaped crystal habit, • Passable for Enclomiphene base having non-prismatic shaped crystal habit (of example 19).

[6] = Particle size distribution by laser diffraction, wet dispersion; format: physicochemical
Description: Different techniques can be used in order to determine the population size distribution (Microscopy image analysis, sieving, sedimentation . . . ). However laser diffraction particle size analyzer using light scattering is one of the most widely used. It is worth noting that each technique is liable to generate a different mean diameter as well as measuring different properties of the particle. Therefore it is very important to indicate the used technique when a result of mean size is given.
Particle size analysis by laser diffraction analyzer can be performed in wet or dry dispersion. However wet dispersion was selected because: • it allows to use only a small amount of sample, • it is recommended for fragile particles such as organic crystals.
Particle size distribution was analyzed in a Beckman Coulter LS13320 apparatus equipped with an Universal Liquid Module.
The particles have to be insoluble in the liquid used for the wet dispersion to avoid dissolution during the measurement.
40 mg of the sample were stirred in 25 ml of water and 3 drops of Triton X100 (to improve the wettability of the crystals and to avoid agglomeration during the analysis). If necessary, ultrasonic irradiation (bath 30 kHz and 200 W) was used for short time in order to break up any agglomerates or aggregates.

[7] = Filterability of suspension in ethanol; format: physicochemical; conditions: 40 mL of suspension in ethanol, on paper over a Buckner
Protocol: Enclomiphene having prismatic shaped crystal habit is indeed very well filterable, since, for example, the filtration (on paper over a Buckner) of 40 mL of suspensions containing of said solid in ethanol takes only 10 seconds.

[8] = Kinetic solubility study in water (HPLC area of Enclomiphene peak)
Protocol: as §1
For each solubility study, the following parameters were monitored: • intensity of Enclomiphene peak for each replicate of the assay • average value • standard deviation.
as §2
Below an HPLC method that allow to have a fast determination of Enclomiphene solubility:
These HPLC conditions were used to perform solubility analysis.

[9] = first run (example 19: with constant percussion)
[10] = first run, approx. 5 g, glass funnel
[11] = water + Triton X100, without sonication, listed as Enclomiphene having prismatic shaped crystal habit
[12] = water + Triton X100, without sonication, listed as Sample 724
[13] = water + Triton X100, without sonication, listed as batch 724
[14] = water + Triton X100, without sonication, listed as Sample 725
[15] = water + Triton X100, without sonication, listed as batch 725

## CCN(CC)CCOc1ccc(/C(=C(/Cl)c2ccccc2)c2ccccc2)cc1 [Enclomiphene acetate]
[1]; 0 min
  Encl. Citr. average: 0 HPLC area
[1]; 15 min
  Encl. Citr. average: 14069 HPLC area
[1]; 45 min
  Encl. Citr. average: 13771 HPLC area
[1]; 90 min
  Encl. Citr. average: 13708 HPLC area
[1]; 180 min
  Encl. Citr. average: 13196 HPLC area

## CCN(CC)CCOc1ccc(/C(=C(/Cl)c2ccccc2)c2ccccc2)cc1 [Enclomiphene base (example 18), Enclomiphene]
[2]; whole range 0-95% RH
  hygroscopicity (in words): not hygroscopic
[3]
  stability of crystal habit: remains stable at least one month
[4]; first run
  Percussion needed?: Yes
[4]; [9]
  time to pass through the funnel: 15 s
[4]; [10]
  Flow?: Yes
[4]; listed as Enclomiphene having prismatic shaped crystal habit
  flow through the funnel: flowed through the funnel
[4]; second run
  Flow?: Yes
  Percussion needed?: Yes
  time to pass through the funnel: 12 s
[4]; third run
  Flow?: Yes
  Percussion needed?: yes
  time to pass through the funnel: 14 s
[4]; with percussion, listed as Enclomiphene having prismatic shaped crystal habit
  time to pass through the funnel: 10 s
[5]; filled space of 500 mg in a test tube after hitting the tube, listed as Enclomiphene (example 18)
  filled space of 500 mg in test tube: 8 mm
[5]; filled space of 500 mg in a test tube after hitting the tube, listed as Enclomiphene base having prismatic crystal habit
  filled space of 500 mg in test tube: 8 mm
[5]; filled space of 500 mg in a test tube before hitting the tube, listed as Enclomiphene (example 18)
  filled space of 500 mg in test tube: 8 mm
[5]; filled space of 500 mg in a test tube before hitting the tube, listed as Enclomiphene base having prismatic crystal habit
  filled space of 500 mg in test tube: 8 mm
[5]; listed as Enclomiphene (example 18)
  Reduced space (bulk vs tapped): 0%
[6]; [11]
  PSD D10: 80 μm
  PSD D90: 770 μm
[6]; [12]
  PSD D10: 81.89 μm
  PSD D90: 770 μm
  PSD Mean: 374.3 μm
  PSD Median (D50): 306.4 μm
  PSD Mode: 356.1 μm
[6]; [13]
  PSD Mean: 374.3 μm
  PSD Median (D50): 306.54 μm
[7]
  filtration time: 10 s

## CCN(CC)CCOc1ccc(/C(=C(/Cl)c2ccccc2)c2ccccc2)cc1 [Enclomiphene base (example 19), Enclomiphene]
[4]; first run
  Percussion needed?: Yes (if constant)
[4]; [9]
  time to pass through the funnel: 130 s
[4]; [10]
  Flow?: No (static
[4]; listed as Enclomiphene having non-prismatic shaped crystal habit
  flow through the funnel: did not flow
[4]; with percussion, listed as Enclomiphene having non-prismatic shaped crystal habit
  time to pass through the funnel: 130 s
[5]; filled space of 500 mg in a test tube after hitting the tube, listed as Enclomiphene (example 19)
  filled space of 500 mg in test tube: 13 mm
[5]; filled space of 500 mg in a test tube after hitting the tube, listed as Enclomiphene base having non-prismatic crystal habit
  filled space of 500 mg in test tube: 13 mm
[5]; filled space of 500 mg in a test tube before hitting the tube, listed as Enclomiphene (example 19)
  filled space of 500 mg in test tube: 17 mm
[5]; filled space of 500 mg in a test tube before hitting the tube, listed as Enclomiphene having non-prismatic crystal habit
  filled space of 500 mg in test tube: 24 mm
[5]; listed as Enclomiphene (example 19)
  Reduced space (bulk vs tapped): 24%
[6]; 10 sec sonication
  PSD D10: 0.100 μm
  PSD D90: 1.942 μm
  PSD Mean: 0.715 μm
  PSD Median (D50): 0.284 μm
  PSD Mode: 1.748 μm
[6]; [14]
  PSD D10: 5.819 μm
  PSD D90: 90.47 μm
  PSD Mean: 36.79 μm
  PSD Median (D50): 24.96 μm
  PSD Mode: 26.14 μm
[6]; [15]
  PSD Mean: 36.79 μm
  PSD Median (D50): 24.96 μm

## CCN(CC)CCOc1ccc(/C(=C(/Cl)c2ccccc2)c2ccccc2)cc1 [Enclomiphene base, Enclomiphene]
[8]
  solubility in water (in words): highly insoluble

## CCN(CC)CCOc1ccc(/C(=C(/Cl)c2ccccc2)c2ccccc2)cc1.O=C(O)CC(O)(CC(=O)O)C(=O)O [Enclomiphene citrate having needle crystals]
[8]; water, listed as Enclomiphene citrate having needle shaped crystal habit
  solubility in water compared with Enclomiphene citrate having non-needle shaped crystal habit: almost double; also recorded: almost two times
[1]
  solubility at pH 4.5 compared with Enclomiphene citrate having non-needle crystals: 4 to 5 times
[1]; listed as Enclomiphene citrate having needle shaped crystal habit
  solubility at pH 4.5 compared with Enclomiphene citrate having non-needle crystals: four times higher
[1]; pH = 4.5, 0 min
  Average a/a: 0 a/a
[1]; pH = 4.5, 15 min
  Average a/a: 4135 a/a
[1]; pH = 4.5, 45 min
  Average a/a: 4024 a/a
[1]; pH = 4.5, 90 min
  Average a/a: 5109 a/a
[1]; pH = 4.5, 180 min
  Average a/a: 5079 a/a
[2]; listed as batch 723
  water uptake at 95% RH: 2.33 % weight and 2.3 % weight

## CCN(CC)CCOc1ccc(/C(=C(/Cl)c2ccccc2)c2ccccc2)cc1.O=C(O)CC(O)(CC(=O)O)C(=O)O [Enclomiphene citrate having non-needle crystals] [trans-Clomiphene monocitrate]
[1]; pH = 4.5, 0 min
  Average a/a: 0 a/a
[1]; pH = 4.5, 15 min
  Average a/a: 1185 a/a
[1]; pH = 4.5, 45 min
  Average a/a: 924 a/a
[1]; pH = 4.5, 90 min
  Average a/a: 1095 a/a
[1]; pH = 4.5, 180 min
  Average a/a: 1052 a/a
[2]; 0-65% RH
  moisture sorption between 0% and 65% RH: 2 % weight
[2]; listed as batch 722
  water uptake at 95% RH: 6 % weight
